Source: patent publication US11370770B2, “3-arylindazoles as selective MEK4 inhibitors” (priority 2019, dated 2022)

Legend:
TRKC = TRKC (Homo sapiens (Human), UniProt Q16288); assay: KINOMEscan binding assay; settings: percent of control
TEC = TEC (Homo sapiens (Human), UniProt P42680); assay: KINOMEscan binding assay; settings: percent of control
TNIK = TNIK (Homo sapiens (Human), UniProt Q9UKE5); assay: KINOMEscan binding assay; settings: percent of control
PRKG1 = PRKG1 (Homo sapiens (Human), UniProt Q13976); assay: KINOMEscan binding assay; settings: percent of control
KIT(L576P) = KIT(L576P) (Homo sapiens (Human), UniProt P10721, L576P); assay: KINOMEscan binding assay; settings: percent of control
ABL1-phophorylated = ABL1-phophorylated (Homo sapiens (Human), UniProt P00519); assay: KINOMEscan binding assay; settings: percent of control
MARK4 = MARK4 (Homo sapiens (Human), UniProt Q96L34); assay: KINOMEscan binding assay; settings: percent of control
PIK4CB = PIK4CB (Homo sapiens (Human), UniProt Q9UBF8); assay: KINOMEscan binding assay; settings: percent of control
PCTK3 = PCTK3 (Homo sapiens (Human), UniProt Q07002); assay: KINOMEscan binding assay; settings: percent of control
CSML2A1 = CSML2A1 (Homo sapiens (Human), UniProt P68400); assay: KINOMEscan binding assay; settings: percent of control
ABL2 = ABL2 (Homo sapiens (Human), UniProt P42684); assay: KINOMEscan binding assay; settings: percent of control
PC3M cells = assay: Scratch wound assay; format: cell-based
MEK6 = MEK6 (Homo sapiens (Human), UniProt P52564); assay: KINOMEscan binding assay; settings: percent of control
MEK3 = MEK3 (Homo sapiens (Human), UniProt P46734); assay: MEK family profiling ADP-Glo, MEK3; format: biochemical; settings: p38α substrate; 0.6 μM ATP; read-out: IC50 MEK isoform 3
IKK-ALPHA = IKK-ALPHA (Homo sapiens (Human), UniProt O15111); assay: KINOMEscan binding assay; settings: percent of control
SIK2 = SIK2 (Homo sapiens (Human), UniProt Q9H0K1); assay: KINOMEscan binding assay; settings: percent of control
MEK1 = MEK1 (Homo sapiens (Human), UniProt Q02750); assay: KINOMEscan binding assay; settings: percent of control
ALK(L1196M) = ALK(L1196M) (Homo sapiens (Human), UniProt Q9UM73, L1196M); assay: KINOMEscan binding assay; settings: percent of control
[1] = biological target: EGFR(L747-S752DEL, P753S) (Homo sapiens (Human), UniProt P00533, DEL747-752/P753S); assay: KINOMEscan binding assay; settings: percent of control
CSNK1G1 = CSNK1G1 (Homo sapiens (Human), UniProt Q9HCP0); assay: KINOMEscan binding assay; settings: percent of control
CDC2L1 = CDC2L1 (Homo sapiens (Human), UniProt P21127); assay: KINOMEscan binding assay; settings: percent of control
[2] = biological target: ABL1(T3151)-phosphorylated (Homo sapiens (Human), UniProt P00519, T315I); assay: KINOMEscan binding assay; settings: percent of control
[3] = Dynamic light scattering (compound aggregation); format: physicochemical; settings: 20, 5 and 1 μM in buffer with and without Triton X-100

Chain of PIK4CB (Q9UBF8 whole entry): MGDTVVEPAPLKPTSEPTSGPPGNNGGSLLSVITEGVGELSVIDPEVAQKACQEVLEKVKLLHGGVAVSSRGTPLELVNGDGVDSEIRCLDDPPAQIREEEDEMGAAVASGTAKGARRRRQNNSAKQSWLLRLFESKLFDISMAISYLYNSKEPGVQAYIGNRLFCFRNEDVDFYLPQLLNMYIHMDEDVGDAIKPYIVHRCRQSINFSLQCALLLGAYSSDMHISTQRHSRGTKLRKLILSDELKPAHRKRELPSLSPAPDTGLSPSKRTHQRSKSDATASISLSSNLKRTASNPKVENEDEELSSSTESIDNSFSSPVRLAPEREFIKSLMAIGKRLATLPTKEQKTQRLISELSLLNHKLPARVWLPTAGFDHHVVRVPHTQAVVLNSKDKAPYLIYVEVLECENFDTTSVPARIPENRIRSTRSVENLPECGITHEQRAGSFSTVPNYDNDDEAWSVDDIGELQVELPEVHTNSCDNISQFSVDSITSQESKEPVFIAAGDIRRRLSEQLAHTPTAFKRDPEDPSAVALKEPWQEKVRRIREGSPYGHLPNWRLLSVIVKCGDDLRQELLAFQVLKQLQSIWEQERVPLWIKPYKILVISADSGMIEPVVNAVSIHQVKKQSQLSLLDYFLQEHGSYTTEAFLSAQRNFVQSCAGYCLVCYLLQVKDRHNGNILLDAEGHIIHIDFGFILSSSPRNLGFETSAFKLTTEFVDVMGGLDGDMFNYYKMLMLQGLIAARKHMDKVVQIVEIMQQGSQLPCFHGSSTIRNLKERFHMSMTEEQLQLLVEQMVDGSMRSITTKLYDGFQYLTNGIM
Chain of TRKC (Q16288 32-839): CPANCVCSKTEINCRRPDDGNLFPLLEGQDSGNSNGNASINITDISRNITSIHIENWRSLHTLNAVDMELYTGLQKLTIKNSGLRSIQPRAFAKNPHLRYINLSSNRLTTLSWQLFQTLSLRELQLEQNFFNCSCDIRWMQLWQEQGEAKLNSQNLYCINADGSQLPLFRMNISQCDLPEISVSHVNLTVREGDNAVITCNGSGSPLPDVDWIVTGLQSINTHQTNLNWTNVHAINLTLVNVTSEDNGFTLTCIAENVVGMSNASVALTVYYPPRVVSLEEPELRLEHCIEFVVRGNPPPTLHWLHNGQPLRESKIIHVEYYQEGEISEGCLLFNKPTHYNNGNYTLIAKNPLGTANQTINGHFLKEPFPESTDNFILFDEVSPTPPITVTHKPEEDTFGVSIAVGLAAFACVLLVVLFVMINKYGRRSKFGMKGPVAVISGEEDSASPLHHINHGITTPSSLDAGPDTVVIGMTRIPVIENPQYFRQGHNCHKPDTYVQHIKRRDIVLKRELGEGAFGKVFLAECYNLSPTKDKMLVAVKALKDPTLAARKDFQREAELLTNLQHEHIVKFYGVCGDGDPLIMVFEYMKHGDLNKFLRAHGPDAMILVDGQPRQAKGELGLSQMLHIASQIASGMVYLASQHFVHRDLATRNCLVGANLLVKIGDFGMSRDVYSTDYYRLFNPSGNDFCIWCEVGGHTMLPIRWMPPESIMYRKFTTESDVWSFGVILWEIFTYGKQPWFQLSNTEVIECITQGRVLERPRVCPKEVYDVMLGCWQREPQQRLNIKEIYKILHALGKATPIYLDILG
Chain of CSML2A1 (P68400 whole entry): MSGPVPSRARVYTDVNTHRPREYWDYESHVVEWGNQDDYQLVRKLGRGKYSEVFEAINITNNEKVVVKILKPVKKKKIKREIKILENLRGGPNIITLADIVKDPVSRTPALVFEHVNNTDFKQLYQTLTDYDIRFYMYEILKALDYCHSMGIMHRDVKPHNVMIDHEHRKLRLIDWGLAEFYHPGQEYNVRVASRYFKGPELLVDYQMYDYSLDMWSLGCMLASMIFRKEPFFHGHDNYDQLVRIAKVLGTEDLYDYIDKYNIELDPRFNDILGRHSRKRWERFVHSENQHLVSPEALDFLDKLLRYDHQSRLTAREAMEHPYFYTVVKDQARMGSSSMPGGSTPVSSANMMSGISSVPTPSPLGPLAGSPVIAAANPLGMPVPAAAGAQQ
Chain of SIK2 (Q9H0K1 whole entry): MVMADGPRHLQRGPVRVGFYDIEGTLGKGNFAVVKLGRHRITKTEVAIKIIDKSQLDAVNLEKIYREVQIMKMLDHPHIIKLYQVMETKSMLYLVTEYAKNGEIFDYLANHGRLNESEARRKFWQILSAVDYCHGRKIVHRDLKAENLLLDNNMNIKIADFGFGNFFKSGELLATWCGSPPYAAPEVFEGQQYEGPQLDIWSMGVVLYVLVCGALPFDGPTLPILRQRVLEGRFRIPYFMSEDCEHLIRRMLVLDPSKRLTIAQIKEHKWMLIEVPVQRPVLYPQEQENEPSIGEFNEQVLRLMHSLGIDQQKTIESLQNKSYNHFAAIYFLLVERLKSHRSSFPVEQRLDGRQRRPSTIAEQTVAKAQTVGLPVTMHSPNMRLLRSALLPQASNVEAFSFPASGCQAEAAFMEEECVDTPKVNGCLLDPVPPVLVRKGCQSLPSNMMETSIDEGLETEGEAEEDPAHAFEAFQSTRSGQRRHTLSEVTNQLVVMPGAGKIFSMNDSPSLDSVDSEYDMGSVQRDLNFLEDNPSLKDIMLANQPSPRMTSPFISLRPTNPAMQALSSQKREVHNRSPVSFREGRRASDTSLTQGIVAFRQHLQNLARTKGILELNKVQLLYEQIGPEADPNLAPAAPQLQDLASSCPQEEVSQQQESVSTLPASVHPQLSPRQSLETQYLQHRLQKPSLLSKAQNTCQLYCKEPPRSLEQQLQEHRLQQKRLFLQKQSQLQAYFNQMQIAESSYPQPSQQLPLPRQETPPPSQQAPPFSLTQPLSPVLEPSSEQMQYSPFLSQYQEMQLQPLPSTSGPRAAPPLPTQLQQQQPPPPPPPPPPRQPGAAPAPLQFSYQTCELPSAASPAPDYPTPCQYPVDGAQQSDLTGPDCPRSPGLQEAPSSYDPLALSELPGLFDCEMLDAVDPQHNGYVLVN
Chain of MEK3 (P46734 whole entry, canonical isoform): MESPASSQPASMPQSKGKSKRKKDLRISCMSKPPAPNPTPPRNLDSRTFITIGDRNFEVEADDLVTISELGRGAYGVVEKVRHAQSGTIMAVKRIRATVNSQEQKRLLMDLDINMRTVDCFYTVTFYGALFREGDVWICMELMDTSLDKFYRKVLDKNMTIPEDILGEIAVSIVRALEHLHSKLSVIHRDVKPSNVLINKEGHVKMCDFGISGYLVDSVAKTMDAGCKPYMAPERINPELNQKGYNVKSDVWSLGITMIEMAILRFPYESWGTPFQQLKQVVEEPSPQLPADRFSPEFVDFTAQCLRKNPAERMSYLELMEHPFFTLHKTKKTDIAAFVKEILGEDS
Chain of MEK6 (P52564 whole entry, canonical isoform): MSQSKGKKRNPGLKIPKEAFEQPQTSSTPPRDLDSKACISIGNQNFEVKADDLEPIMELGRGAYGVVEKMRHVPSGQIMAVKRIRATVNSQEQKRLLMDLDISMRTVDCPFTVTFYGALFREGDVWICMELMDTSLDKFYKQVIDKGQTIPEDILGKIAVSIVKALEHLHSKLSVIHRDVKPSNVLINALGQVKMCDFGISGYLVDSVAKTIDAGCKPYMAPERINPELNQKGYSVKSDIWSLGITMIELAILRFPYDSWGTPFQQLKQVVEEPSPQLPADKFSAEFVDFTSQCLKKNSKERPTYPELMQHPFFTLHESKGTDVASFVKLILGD
Chain of CDC2L1 (P21127 whole entry): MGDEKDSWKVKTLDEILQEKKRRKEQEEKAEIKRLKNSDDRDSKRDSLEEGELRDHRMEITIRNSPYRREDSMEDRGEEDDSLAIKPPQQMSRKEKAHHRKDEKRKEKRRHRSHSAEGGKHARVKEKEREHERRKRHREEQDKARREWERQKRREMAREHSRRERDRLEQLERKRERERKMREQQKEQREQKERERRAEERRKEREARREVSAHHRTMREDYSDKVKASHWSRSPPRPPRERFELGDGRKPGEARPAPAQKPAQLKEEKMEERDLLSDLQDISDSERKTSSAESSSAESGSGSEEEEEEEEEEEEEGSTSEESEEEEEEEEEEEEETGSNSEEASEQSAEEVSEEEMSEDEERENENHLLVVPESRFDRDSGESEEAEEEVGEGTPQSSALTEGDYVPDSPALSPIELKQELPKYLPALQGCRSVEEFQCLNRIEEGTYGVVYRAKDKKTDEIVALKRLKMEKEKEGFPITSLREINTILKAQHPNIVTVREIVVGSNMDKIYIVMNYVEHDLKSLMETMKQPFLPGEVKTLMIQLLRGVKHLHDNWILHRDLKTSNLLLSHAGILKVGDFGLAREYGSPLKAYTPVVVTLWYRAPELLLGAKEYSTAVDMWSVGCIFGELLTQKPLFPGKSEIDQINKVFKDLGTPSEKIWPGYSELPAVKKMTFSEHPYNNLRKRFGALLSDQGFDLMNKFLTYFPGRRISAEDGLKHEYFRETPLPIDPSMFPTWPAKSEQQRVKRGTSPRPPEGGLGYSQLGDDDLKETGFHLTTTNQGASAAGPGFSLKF
Chain of CSNK1G1 (Q9HCP0 whole entry): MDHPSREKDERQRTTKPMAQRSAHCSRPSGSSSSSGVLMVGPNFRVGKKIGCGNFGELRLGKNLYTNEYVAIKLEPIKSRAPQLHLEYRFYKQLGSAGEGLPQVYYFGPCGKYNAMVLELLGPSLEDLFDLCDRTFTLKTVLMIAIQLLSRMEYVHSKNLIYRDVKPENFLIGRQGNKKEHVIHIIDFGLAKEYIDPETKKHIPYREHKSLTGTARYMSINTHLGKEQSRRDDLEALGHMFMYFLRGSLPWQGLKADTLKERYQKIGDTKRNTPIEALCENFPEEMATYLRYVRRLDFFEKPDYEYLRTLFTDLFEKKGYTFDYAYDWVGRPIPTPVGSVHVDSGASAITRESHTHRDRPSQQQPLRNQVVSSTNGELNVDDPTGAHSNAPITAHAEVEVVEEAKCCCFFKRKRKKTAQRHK

Structure (SMILES): O=C(O)c1ccc(-c2n[nH]c3cc(F)ccc23)cc1 [Compound 6ff, 4-(6-fluoro-2H-indazol-3-yl)benzoic Acid]
- % Ctrl @ 10000 nM (TRKC): 11 % Ctrl
- % Ctrl @ 10000 nM (TEC): 100 % Ctrl
- % Ctrl @ 10000 nM (TNIK): 3.6 % Ctrl
- % Ctrl @ 10000 nM (PRKG1): 100 % Ctrl
- % Ctrl @ 10000 nM (KIT(L576P)): 11 % Ctrl
- % Ctrl @ 10000 nM (ABL1-phophorylated): 73 % Ctrl
- % Ctrl @ 10000 nM (MARK4): 86 % Ctrl
- % Ctrl @ 10000 nM (PIK4CB): 28 % Ctrl
- % Ctrl @ 10000 nM (PCTK3): 100 % Ctrl
- % Ctrl @ 10000 nM (CSML2A1): 0 % Ctrl
- % Ctrl @ 10000 nM (ABL2): 100 % Ctrl
- efficacy in wound scratch assay (PC3M cells; 10 μM): no efficacy
- efficacy in wound scratch assay (PC3M cells; 25 μM): no efficacy
- Percent Difference, DMSO vs. 10 uM inhibitor (PC3M cells; PC3M cells, 10 μM, wound gap 0 vs 20 hrs): −1.65%
- Percent Difference, DMSO vs. 25 uM inhibitor (PC3M cells; PC3M cells, 25 μM, wound gap 0 vs 20 hrs): −0.16%
- % Ctrl @ 10000 nM (MEK6): 78 % Ctrl
- IC50 (MEK3): > 27 µM
- % Ctrl @ 10000 nM (IKK-ALPHA): 14 % Ctrl
- % Ctrl @ 10000 nM (SIK2): 100 % Ctrl
- % Ctrl @ 10000 nM (MEK1): 49 % Ctrl
- % Ctrl @ 10000 nM (ALK(L1196M)): 61 % Ctrl
- % Ctrl @ 10000 nM [1]: 81 % Ctrl
- % Ctrl @ 10000 nM (CSNK1G1): 90 % Ctrl
- % Ctrl @ 10000 nM (CDC2L1): 100 % Ctrl
- % Ctrl @ 10000 nM [2]: 12 % Ctrl

Structure (SMILES): O=C(O)c1cccc(-c2n[nH]c3ccccc23)c1 [Compound 6a, 3-(1H-indazol-3-yl)benzoic Acid]
- % Ctrl @ 10000 nM (TRKC): 39 % Ctrl
- % Ctrl @ 10000 nM (TEC): 100 % Ctrl
- % Ctrl @ 10000 nM (TNIK): 65 % Ctrl
- % Ctrl @ 10000 nM (PRKG1): 100 % Ctrl
- % Ctrl @ 10000 nM (KIT(L576P)): 59 % Ctrl
- % Ctrl @ 10000 nM (ABL1-phophorylated): 86 % Ctrl
- % Ctrl @ 10000 nM (MARK4): 97 % Ctrl
- % Ctrl @ 10000 nM (PIK4CB): 0 % Ctrl
- % Ctrl @ 10000 nM (PCTK3): 100 % Ctrl
- % Ctrl @ 10000 nM (CSML2A1): 0.75 % Ctrl
- % Ctrl @ 10000 nM (ABL2): 100 % Ctrl
- % Ctrl @ 10000 nM (MEK6): 91 % Ctrl
- IC50 (MEK3): 16 µM
- % Ctrl @ 10000 nM (IKK-ALPHA): 50 % Ctrl
- compound aggregates by DLS [3]: under no conditions were aggregates observed
- % Ctrl @ 10000 nM (SIK2): 93 % Ctrl
- % Ctrl @ 10000 nM (ALK(L1196M)): 59 % Ctrl
- % Ctrl @ 10000 nM [1]: 85 % Ctrl
- % Ctrl @ 10000 nM (CSNK1G1): 80 % Ctrl
- % Ctrl @ 10000 nM (CDC2L1): 100 % Ctrl
- % Ctrl @ 10000 nM [2]: 40 % Ctrl
